The target of series [1] is T1, α2δ subunit derived from porcine brain tissue (Sus scrofa, UniProt A0A287BIN3).
T1 construct: the α2δ subunit derived from porcine brain tissue was used; from tissue; host or cells: porcine brain tissue
The series is described as follows: radioligand binding assay using [3H]gabapentin and the α2δ subunit. The conditions noted are these: read-out: IC50 (μM) at α2δ Binding Site.

The test system of series [2] is carrageenin-induced hyperalgesia in the rat paw. Description: Carrageenin-induced hyperalgesia, rat paw pressure test (Randall-Selitto). It is filed as in vivo, rat (male Sprague-Dawley). The conditions noted are these: dosed orally at 30 mg/kg. The method, then: Carrageenin-Induced Hyperalgesia
Nociceptive pressure thresholds were measured in the rat paw pressure test using an analgesimeter (Randall-Selitto method: Randall L. O. and Selitto J. J., “A method for measurement of analgesic activity on inflamed tissue,” Arch. Int. Pharmacodyn., 1957;4:409-419). Male Sprague-Dawley rats (70-90 g) were trained on this apparatus before the test day. Pressure was gradually applied to the hind paw of each rat and nociceptive thresholds were determined as the pressure (g) required to elicit paw withdrawal. A cutoff point of 250 g was used to prevent any tissue damage to the paw. On the test day, two to three baseline measurements were taken before animals were administered 100 μL of 2% carrageenin by intraplantar injection into the right hind paw.
(R)-2-Aza-spiro[4.5]decane-4-carboxylic acid hydrochloride was tested in the above carrageenan-induced hyperalgesia model. The compound was dosed orally at 30 mg/kg, and 1 hour postdose gave a percent of maximum possible effect (MPE) of 53%. At 2 hours postdose, it gave only 4.6% of MPE.
In general terms: Carrageenan injected into the paw causes an acute inflammation.

Each structure is given as a SMILES string. Counter-ions that a name gives are not always drawn. Bounds are passed on as bounds.

This note sets out measurements from patent US6489352B2, “Conformationally constrained compounds as pharmaceutical agents” (Warner-Lambert Company, priority 1998, dated 2002).

T1 sequence (A0A287BIN3 25-1109): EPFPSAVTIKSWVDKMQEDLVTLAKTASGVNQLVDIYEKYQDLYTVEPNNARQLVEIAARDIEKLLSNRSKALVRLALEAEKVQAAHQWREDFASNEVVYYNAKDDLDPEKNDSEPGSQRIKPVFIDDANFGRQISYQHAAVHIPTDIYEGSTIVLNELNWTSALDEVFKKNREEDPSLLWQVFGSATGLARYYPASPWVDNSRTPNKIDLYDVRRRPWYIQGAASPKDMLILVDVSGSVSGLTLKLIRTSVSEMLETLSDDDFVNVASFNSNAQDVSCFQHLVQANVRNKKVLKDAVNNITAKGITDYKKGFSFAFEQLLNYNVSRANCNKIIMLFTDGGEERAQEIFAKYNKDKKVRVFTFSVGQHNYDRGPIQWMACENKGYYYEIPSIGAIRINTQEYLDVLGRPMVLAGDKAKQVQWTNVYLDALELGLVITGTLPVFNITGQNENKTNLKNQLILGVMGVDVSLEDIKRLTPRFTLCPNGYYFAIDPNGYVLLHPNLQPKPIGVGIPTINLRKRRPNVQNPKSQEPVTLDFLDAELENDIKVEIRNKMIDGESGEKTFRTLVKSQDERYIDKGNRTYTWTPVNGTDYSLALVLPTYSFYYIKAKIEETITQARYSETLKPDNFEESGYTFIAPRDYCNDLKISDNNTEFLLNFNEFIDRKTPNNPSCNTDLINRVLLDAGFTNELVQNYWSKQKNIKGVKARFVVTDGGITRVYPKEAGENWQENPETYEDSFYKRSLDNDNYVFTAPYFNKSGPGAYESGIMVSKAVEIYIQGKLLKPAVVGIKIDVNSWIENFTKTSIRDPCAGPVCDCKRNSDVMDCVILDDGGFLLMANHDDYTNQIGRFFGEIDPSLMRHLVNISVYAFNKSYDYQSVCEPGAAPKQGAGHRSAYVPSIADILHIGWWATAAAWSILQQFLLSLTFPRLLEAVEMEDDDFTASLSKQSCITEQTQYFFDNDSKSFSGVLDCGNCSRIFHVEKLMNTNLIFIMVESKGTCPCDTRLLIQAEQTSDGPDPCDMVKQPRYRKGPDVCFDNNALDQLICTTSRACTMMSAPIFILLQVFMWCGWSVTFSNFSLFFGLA

As to `Cl.O=C(O)C1NCC12CCCCC2` (racemic) [(±)-2-Aza-spiro[3.5]nonane-1-carboxylic acid hydrochloride], the melting point fell in the range of 163 to 165 °C. The half-maximal inhibitory concentration (IC50) in series [1] was 1.5 µM.

Regarding `O=C(O)C1CNCC12CCCCC2` (racemic) [(±)-2-Aza-spiro[4.5]decane-4-carboxylic acid hydrochloride], in series [1], the IC50 stood at 0.35 µM.

As to `Cl.O=C(O)[C@H]1CNCC12CCCCC2` [(R)-2-Aza-spiro[4.5]decane-4-carboxylic acid hydrochloride], the IC50 in series [1] is 0.16 µM. In addition, the “percent of maximum possible effect (MPE)” value in series [2] (1 hour postdose) was found to be 53%; in series [2] (2 hours postdose), 4.6%.

`O=C(O)[C@@H]1CNCC12CCCCC2` [(S)-2-Aza-spiro[4.5]decane-4-carboxylic acid hydrochloride]: the IC50 in series [1] is more than 10 µM.

As to `O=C(O)C1CNCC12C1CCCC2CCC1` (stereo not drawn) [Spiro[bicyclo[3.3.1]nonane-9,3′-pyrrolidine]-4′-carboxylic acid], the IC50 in series [1] is 0.57 µM.

For `O=C(O)C1CNCC12C1CC3CC(C1)CC2C3` (stereo not drawn) [Spiro[pyrrolidine-3,2′-tricyclo[3.3.1.1^3,7]decane]-4-carboxylic acid], in series [1], the half-maximal inhibitory concentration (IC50) worked out at 0.42 µM.

What is called melting point is the temperature of the solid-liquid transition. Usually IC50 stands for the midpoint of a concentration-inhibition curve.
